This is an account of results in ChEMBL document CHEMBL1124555, “9-Amino-1,2,3,4-tetrahydroacridin-1-ols: synthesis and evaluation as potential Alzheimer's disease therapeutics” (J Med Chem, 1989).

A value given as a limit tells only on which side of the number the result lay.

Series [1] is filed under the species Mus musculus. Type of series: functional. The settings on record: at […].
Description: Reversal of scopolamine-induced memory impairment in mice at 0.31 mg/Kg administered subcutaneously.
The species entered for series [2] is Mus musculus. Type of series: functional. The settings on record: at 5 mg/kg.
Description: Reversal of scopolamine-induced memory impairment in mice at 5 mg/Kg administered subcutaneously.
Series [3] is described as follows: Toxicity was evaluated in rats, after intraperitoneal administration;Value ranges from (40-80). Type of series: organism-based. To be noted: rat, in vivo, ip.
The target of series [4] is T1, Acetylcholinesterase (Rattus norvegicus, UniProt P37136).
T1 sequence (P37136 whole entry): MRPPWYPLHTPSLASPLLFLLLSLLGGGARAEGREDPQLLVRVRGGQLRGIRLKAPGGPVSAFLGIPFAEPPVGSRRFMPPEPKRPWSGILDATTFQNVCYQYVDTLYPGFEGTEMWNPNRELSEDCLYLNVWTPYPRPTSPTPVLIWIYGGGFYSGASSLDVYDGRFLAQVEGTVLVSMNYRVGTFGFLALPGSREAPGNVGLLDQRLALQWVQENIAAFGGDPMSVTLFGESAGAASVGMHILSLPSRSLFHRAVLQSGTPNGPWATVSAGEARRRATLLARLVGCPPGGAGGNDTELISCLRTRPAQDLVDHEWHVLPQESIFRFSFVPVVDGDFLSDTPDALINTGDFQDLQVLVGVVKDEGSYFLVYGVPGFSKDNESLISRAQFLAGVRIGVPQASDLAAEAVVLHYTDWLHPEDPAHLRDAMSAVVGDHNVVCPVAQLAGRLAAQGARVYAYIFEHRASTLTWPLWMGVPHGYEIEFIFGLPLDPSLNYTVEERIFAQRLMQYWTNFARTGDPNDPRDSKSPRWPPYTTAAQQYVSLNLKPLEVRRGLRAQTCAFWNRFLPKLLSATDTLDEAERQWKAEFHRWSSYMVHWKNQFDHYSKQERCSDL
Description: In vitro inhibition against acetylcholinesterase in rat striata.

The species entered for series [5] is Mus musculus. Type of series: functional. The settings on record: at 1.25 mg/kg.
Description: Reversal of scopolamine-induced memory impairment in mice at 1.25 mg/Kg administered subcutaneously.
For series [6], the target named is Norepinephrine transporter (Rattus norvegicus, UniProt Q9WTR4).
Description: Inhibition of norepinephrine reuptake in rat whole brains minus cerebellar
The species named for series [7] is Mus musculus. Type of series: functional. The settings on record: at 0.16 mg/kg.
Description: Reversal of scopolamine-induced memory impairment in mice at 0.16 mg/Kg administered subcutaneously.
Series [8] is filed under the species Mus musculus. Type of series: functional. To be noted: at 0.63 mg/kg.
Description: Reversal of scopolamine-induced memory impairment in mice at 0.63 mg/Kg administered subcutaneously.
The species named for series [9] is Mus musculus. Type of series: functional. The settings on record: at 2.5 mg/kg.
Description: Reversal of scopolamine-induced memory impairment in mice at 2.5 mg/Kg administered subcutaneously.
The target in series [10] is Sodium-dependent dopamine transporter (Rattus norvegicus, UniProt P23977). Type of series: functional.
Description: Inhibition of the reuptake of dopamine in rat corpora striata.
The nature of series [11]: Toxicity was evaluated in rats, after intraperitoneal administration;Value ranges from(40-80). Type of series: organism-based. The settings on record: rat, in vivo, ip.
In series [12] the target is Sodium-dependent serotonin transporter (Rattus norvegicus, UniProt P31652). Type of series: functional.
Description: Inhibition of serotonin reuptake in rat whole brains without cerebellum
Series [13] in a line: in vivo. To be noted: mouse, ip.
For series [14], the species on record is Mus musculus. The series can be described thus: Compound was tested in nbm model of mice, for the dose at which reversal of retention deficit in lesioned animals and enhanced learning in sham-pperated animals was observed. Type of series: functional.
Series [15] in a line: Toxicity was evaluated in rats, after intraperitoneal administration;Value ranges from 50-60. Type of series: organism-based. The settings on record: rat, in vivo, ip.
The nature of series [16]: Toxicity was evaluated in mice, after intraperitoneal administration;Value ranges from(83-107). Type of series: organism-based. To be noted: mouse, in vivo, ip.
The test system of series [17] is Mus musculus. Put plainly: Intra peritoneal administration for the reversal of tetrabenazine ptosis in mice. Type of series: functional.
Series [18] has as its target T1, Acetylcholinesterase. Put plainly: In vitro inhibition against acetylcholinesterase in rat striatal. Type of series: functional.
For the next series, the species on record is Rattus norvegicus. The series can be described thus: cells.
Series [19] in a line: in vivo. The settings on record: rat, ip.
Description: Toxicity evaluated in rats after intraperitoneal administration.
The nature of series [20]: Toxicity was evaluated in rats, after intraperitoneal administration;Value ranges from (40-80). Type of series: organism-based. The settings on record: rat, in vivo, ip.

Sodium-dependent serotonin transporter, sequence (P31652 whole entry): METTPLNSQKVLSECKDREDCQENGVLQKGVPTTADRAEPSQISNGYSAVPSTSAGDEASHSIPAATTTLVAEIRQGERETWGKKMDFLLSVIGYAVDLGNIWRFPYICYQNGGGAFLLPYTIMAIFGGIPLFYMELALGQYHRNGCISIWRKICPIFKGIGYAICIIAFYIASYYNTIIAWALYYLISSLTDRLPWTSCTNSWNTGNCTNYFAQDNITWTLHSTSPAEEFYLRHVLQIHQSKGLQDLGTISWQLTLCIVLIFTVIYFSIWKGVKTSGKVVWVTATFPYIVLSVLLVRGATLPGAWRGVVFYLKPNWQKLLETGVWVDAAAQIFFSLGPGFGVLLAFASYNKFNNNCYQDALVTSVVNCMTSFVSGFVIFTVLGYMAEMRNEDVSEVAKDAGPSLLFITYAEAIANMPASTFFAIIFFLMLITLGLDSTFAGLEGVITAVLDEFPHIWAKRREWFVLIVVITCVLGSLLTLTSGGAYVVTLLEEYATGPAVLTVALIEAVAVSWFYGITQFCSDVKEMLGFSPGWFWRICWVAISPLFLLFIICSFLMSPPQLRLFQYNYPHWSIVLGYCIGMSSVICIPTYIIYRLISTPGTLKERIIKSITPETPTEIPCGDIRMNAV
Norepinephrine transporter, sequence (Q9WTR4 whole entry): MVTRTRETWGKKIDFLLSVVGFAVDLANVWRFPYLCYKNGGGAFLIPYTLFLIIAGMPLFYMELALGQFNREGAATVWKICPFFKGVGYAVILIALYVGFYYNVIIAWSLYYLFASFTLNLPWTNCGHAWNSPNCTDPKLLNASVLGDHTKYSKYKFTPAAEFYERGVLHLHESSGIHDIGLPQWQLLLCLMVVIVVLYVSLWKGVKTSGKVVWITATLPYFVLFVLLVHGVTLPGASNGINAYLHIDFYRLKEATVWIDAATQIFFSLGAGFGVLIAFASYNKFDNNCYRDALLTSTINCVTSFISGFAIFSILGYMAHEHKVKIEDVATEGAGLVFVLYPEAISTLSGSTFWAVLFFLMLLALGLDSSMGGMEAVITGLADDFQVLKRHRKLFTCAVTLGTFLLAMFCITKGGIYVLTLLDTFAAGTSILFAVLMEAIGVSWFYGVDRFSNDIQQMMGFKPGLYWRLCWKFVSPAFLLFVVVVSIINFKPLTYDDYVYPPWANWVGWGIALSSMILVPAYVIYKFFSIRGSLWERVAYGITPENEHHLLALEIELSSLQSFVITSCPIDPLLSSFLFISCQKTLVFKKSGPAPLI
Sodium-dependent dopamine transporter, sequence (P23977 whole entry): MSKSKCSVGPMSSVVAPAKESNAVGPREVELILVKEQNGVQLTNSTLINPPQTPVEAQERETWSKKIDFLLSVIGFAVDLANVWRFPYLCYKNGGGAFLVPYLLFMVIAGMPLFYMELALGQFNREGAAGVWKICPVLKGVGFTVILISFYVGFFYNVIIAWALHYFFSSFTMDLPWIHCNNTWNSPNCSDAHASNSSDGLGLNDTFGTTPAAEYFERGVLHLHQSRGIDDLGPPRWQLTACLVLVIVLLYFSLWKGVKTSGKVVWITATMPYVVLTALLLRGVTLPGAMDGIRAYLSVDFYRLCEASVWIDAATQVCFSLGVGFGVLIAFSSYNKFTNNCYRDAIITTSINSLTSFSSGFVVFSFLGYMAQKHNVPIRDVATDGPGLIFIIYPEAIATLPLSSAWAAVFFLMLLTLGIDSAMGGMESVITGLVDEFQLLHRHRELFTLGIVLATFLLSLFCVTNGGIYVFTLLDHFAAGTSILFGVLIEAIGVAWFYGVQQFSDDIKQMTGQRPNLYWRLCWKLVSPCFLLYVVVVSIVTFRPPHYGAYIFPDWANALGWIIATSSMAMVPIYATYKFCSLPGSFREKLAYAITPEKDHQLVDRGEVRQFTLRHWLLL
Description for Rattus norvegicus: Compound was evaluated for inhibition of the reuptake of norepinephrine

For the molecule `OC1CCCc2nc3cc(F)ccc3c(NCc3ccccc3)c21` (configuration not stated), the Animals was found to be 0% in the series listed under Mus musculus [1]; 0% in the series listed under Mus musculus [2]; 0% in the series filed under Mus musculus [5]; 13% in the series listed under Mus musculus [7]; 0% in the series listed under Mus musculus [8]; 0% in the series listed under Mus musculus [9]. In series [3], this molecule had an LD50 of less than 80 mg/kg. Further, the IC50 at Acetylcholinesterase [4] stood at 8.63 µM; in series [6], 0.2 µM.
Turning to `Cc1cccc(CNc2c3c(nc4ccccc24)CCCC3O)c1` (configuration not stated), the IC50 turned out to be 0.51 µM in series [10], 24.5 µM against Acetylcholinesterase [4], 0.22 µM in series [6] and 5.5 µM in series [12]. The Animals in the series listed under Mus musculus [1] was 7%; in the series listed under Mus musculus [2], 20%; in the series listed under Mus musculus [5] it was 20%; in the series listed under Mus musculus [7], 7%; in the series filed under Mus musculus [8], 20%; in the series listed under Mus musculus [9], 13%. The molecule further came in with an LD50 in series [11] of less than 80 mg/kg.
Consider `OC1CCCc2nc3ccccc3c(NCc3ccccc3F)c21` (configuration not stated), for which the IC50 in series [10] worked out at 0.41 µM; at Acetylcholinesterase [4] it was 41.3 µM; in series [6], 0.11 µM; in [12], 17 µM. The Animals in the series listed under Mus musculus [1] amounted to 14%; in the series listed under Mus musculus [2] it was 7%; in the series filed under Mus musculus [5], 7%; in the series filed under Mus musculus [7], 7%; in the series filed under Mus musculus [8] it was 33%; in the series listed under Mus musculus [9], 20%. In [3], the LD50 was less than 80 mg/kg.
`Nc1c2c(nc3ccccc13)CCCC2O` (configuration not stated) [VELNACRINE]: the IC50 in series [10] was greater than 20 µM; against Acetylcholinesterase [4] it was 4 µM; in series [6], greater than 20 µM; in [12], greater than 20 µM. The Animals in the series listed under Mus musculus [1] turned out to be 20%; in the series listed under Mus musculus [2], 33%; in the series listed under Mus musculus [5], 20%; in the series filed under Mus musculus [7], 14%; in the series filed under Mus musculus [8], 33%; in the series filed under Mus musculus [9], 31%. In addition, the LD50 in series [3] was less than 80 mg/kg; in the series “in vivo [13]” it was 162 mg/kg.
Regarding `OC1CCCc2nc3ccccc3c(NCc3ccccc3)c21` (configuration not stated) [SURONACRINE], the IC50 turned out to be 0.3 µM in [10], 0.07 µM in [6], 32.2 µM against Acetylcholinesterase [18] and 11 µM in series [12]. For the same molecule, the Animals was found to be 50% in the series filed under Mus musculus [1]; 36% in the series listed under Mus musculus [2]; 13% in the series filed under Mus musculus [5]; 27% in the series filed under Mus musculus [7]; 20% in the series filed under Mus musculus [8]; 21% in the series listed under Mus musculus [9]. Further, in the series filed under Mus musculus [14], the Dose came out at 20 mg/kg. The results for the LD50 in series [15] and in series [16] were less than 60 mg/kg and 94 mg/kg, respectively. The ED50 with Mus musculus [17] came to 27.4 mg/kg.
As to `OC1CCCc2nc3ccccc3c(NCc3ccc(F)cc3)c21` (configuration not stated), the IC50 in [10] turned out to be 2.9 µM; at Acetylcholinesterase [4], 16.7 µM; in [6] it was 1.8 µM; in series [12] it was 12 µM. Further, the Animals was 20% in the series filed under Mus musculus [1]; 6% in the series filed under Mus musculus [2]; 27% in the series listed under Mus musculus [5]; 7% in the series listed under Mus musculus [7]; 25% in the series listed under Mus musculus [8]; 33% in the series listed under Mus musculus [9]. The same molecule had an LD50 in series [3] of less than 80 mg/kg.
In the case of `OC1CCCc2nc3ccccc3c(NCc3cccc(F)c3)c21` (configuration not stated), the IC50 came out at 0.3 µM in series [10], 13.1 µM against Acetylcholinesterase [4], 0.12 µM in series [6] and 6.2 µM in [12]. The Animals was determined as 23% in the series filed under Mus musculus [1]; 21% in the series filed under Mus musculus [2]; 0% in the series listed under Mus musculus [5]; 33% in the series filed under Mus musculus [7]; 7% in the series filed under Mus musculus [8]; 14% in the series filed under Mus musculus [9]. The molecule also gave an LD50 in [3] of less than 80 mg/kg.
Regarding `Nc1c2c(nc3cc(C(F)(F)F)ccc13)CCCC2O` (configuration not stated), the Animals worked out at 26% in the series filed under Mus musculus [1]; 33% in the series filed under Mus musculus [2]; 33% in the series filed under Mus musculus [5]; 40% in the series listed under Mus musculus [7]; 71% in the series filed under Mus musculus [8]; 21% in the series filed under Mus musculus [9]. Moreover, the LD50 in series [11] is less than 80 mg/kg. For the same molecule, 1.77 µM corresponded to half-maximal inhibition against Acetylcholinesterase [4] (IC50).
With `Nc1c2c(nc3ccc(Cl)cc13)CCCC2O` (configuration not stated), the IC50 in the series listed under Rattus norvegicus was greater than 10 µM; at Acetylcholinesterase [4], 24.7 µM. This molecule also had an LD50 in the series “in vivo [19]” of 80 mg/kg.
As to `CNc1c2c(nc3ccccc13)CCCC2O` (configuration not stated), the IC50 is greater than 20 µM in series [10], 1.76 µM against Acetylcholinesterase [4], greater than 20 µM in [6] and greater than 20 µM in series [12]. The Animals is listed as 7% in the series listed under Mus musculus [1]; 7% in the series listed under Mus musculus [2]; 7% in the series filed under Mus musculus [5]; 0% in the series listed under Mus musculus [7]; 0% in the series filed under Mus musculus [8]; 7% in the series listed under Mus musculus [9]. This molecule also returned an LD50 in series [20] of less than 80 mg/kg.
With `CCCNc1c2c(nc3ccccc13)CCCC2O` (configuration not stated), the half-maximal inhibitory concentration (IC50) in the series listed under Rattus norvegicus is greater than 20 µM; in series [10], greater than 20 µM; against Acetylcholinesterase [4], 13.3 µM; in series [12] it was greater than 20 µM. This molecule also showed an LD50 in [11] of less than 80 mg/kg.
For `Cc1ccccc1CNc1c2c(nc3ccccc13)CCCC2O` (configuration not stated), the IC50 stood at 0.25 µM in series [10], 5.89 µM against Acetylcholinesterase [4], 0.053 µM in series [6] and 9 µM in [12]. In addition, the Animals in the series filed under Mus musculus [1] came to 7%; in the series listed under Mus musculus [2] it was 0%; in the series filed under Mus musculus [5] it was 13%; in the series listed under Mus musculus [7] it was 0%; in the series listed under Mus musculus [8] it was 7%; in the series listed under Mus musculus [9] it was 7%. For the same molecule, the LD50 in series [11] was less than 80 mg/kg. Besides, the ED50 with Mus musculus [17] stood at 25.3 mg/kg.
For `OC1CCCc2nc3cc(Cl)ccc3c(NCc3ccccc3)c21` (configuration not stated), the concentration for half-maximal inhibition (IC50) in series [10] turned out to be 1.3 µM; on Acetylcholinesterase [4] it was 1.3 µM; in series [6] it was 0.82 µM; in series [12], 15 µM. For the same molecule, the Animals turned out to be 13% in the series filed under Mus musculus [1]; 0% in the series listed under Mus musculus [2]; 7% in the series filed under Mus musculus [5]; 0% in the series filed under Mus musculus [7]; 7% in the series filed under Mus musculus [8]; 7% in the series listed under Mus musculus [9]. For the same molecule, in “in vivo [19]”, the LD50 is greater than 80 mg/kg.
As for `OC1CCCc2nc3ccccc3c(NCc3cccc(C(F)(F)F)c3)c21` (configuration not stated), the IC50 in [10] is 2.4 µM; at Acetylcholinesterase [4], 14.2 µM; in series [6] it was 0.93 µM; in series [12] it was 2.3 µM. Moreover, the Animals in the series filed under Mus musculus [1] came to 0%; in the series filed under Mus musculus [2] it was 0%; in the series listed under Mus musculus [5] it was 7%; in the series filed under Mus musculus [7], 0%; in the series listed under Mus musculus [8], 0%; in the series listed under Mus musculus [9], 0%. The same molecule gave an LD50 in series [3] of less than 80 mg/kg.
Regarding `OC1CCCc2nc3ccccc3c(NCc3ccccc3C(F)(F)F)c21` (configuration not stated), the IC50 in [10] is 0.95 µM; against Acetylcholinesterase [4] it was 13.3 µM; in series [6] it was 0.081 µM; in series [12] it was 3.8 µM. The Animals in the series filed under Mus musculus [1] was 23%; in the series listed under Mus musculus [2] it was 33%; in the series listed under Mus musculus [5], 20%; in the series listed under Mus musculus [7] it was 38%; in the series filed under Mus musculus [8], 13%; in the series listed under Mus musculus [9] it was 13%. In addition, the ED50 in the series on Mus musculus [17] amounted to 16.2 mg/kg. The LD50 in the series “in vivo [19]” worked out at 80 mg/kg.

As usually defined, the LD50 is the dose expected to kill half of the subjects tested. One may read the IC50 as the concentration at which inhibition is half-maximal. As usually defined, the ED50 is the midpoint of the dose-response relation.
